Assay results published in ChEMBL document CHEMBL4619710, “Study on structure-activity relationship of vitamin K derivatives: Conversion of the naphthoquinone part into another aromatic ring and evaluation of their neuronal differentiation-inducing activity” (2020).
Active and inactive are the calls of the source. The rule behind the calls is not given here.

How the values were obtained:
Type in all cases: functional
Mus musculus [1] = species: Mus musculus; experiment: Induction of neuronal differentiation of neuronal progenitor cells isolated from embryonic mouse cerebrum assessed as increase in MAP2 mRNA expression at 1 uM by real time PCR analysis
Mus musculus [2] = species: Mus musculus; experiment: Induction of neuronal differentiation of neuronal progenitor cells isolated from embryonic mouse cerebrum at 1 uM treated every second day for 4 days and measured after 48 hrs by DAPI/MAP2 fluorescent immunostaining based assay
[3] = Induction of neuronal differentiation of neuronal progenitor cells isolated from embryonic mouse cerebrum assessed as increase in MAP2 mRNA expression at 1 uM by real time PCR analysis relative to control

Compound | Activity (Mus musculus [1]) | Activity (Mus musculus [2]) | fold change (FC) [3]
CC(C)=CCC/C(C)=C/CC/C(C)=C/Cc1ccccc1C | inactive | inactive | 
CC(C)=CCC/C(C)=C/Cc1ccccc1C | inactive | inactive | 
COC1=C(OC)C(=O)C(C/C=C(\C)CCC=C(C)C)=C(C)C1=O |  | inactive | 
CC(C)=CCC/C(C)=C/Cc1cccc(C)c1 | inactive | inactive | 
CC(C)=CCC/C(C)=C/CC/C(C)=C/Cc1cccc(C)c1 | inactive | inactive | 
COC1=C(OC)C(=O)C(C/C=C(\C)CC/C=C(\C)CC/C=C(\C)CCC=C(C)C)=C(C)C1=O | Active | Active | 
CC(C)=CCC/C(C)=C/CC/C(C)=C/CC1=C(C)C(=O)C(C)=C(C)C1=O | Active | Active | 2
CC(C)=CCC/C(C)=C/CC/C(C)=C/CC1=C(C)C(=O)c2ccccc2C1=O | Active | Active | 
CC(C)=CCC/C(C)=C/CC1=C(C)C(=O)C(C)=C(C)C1=O | Active | Active | 2
CC(C)=CCC1=C(C)C(=O)c2ccccc2C1=O | Active | Active | 
COC1=C(OC)C(=O)C(C/C=C(\C)CC/C=C(\C)CCC=C(C)C)=C(C)C1=O |  | inactive | 
CC(C)=CCC/C(C)=C/CC1=C(C)C(=O)c2ccccc2C1=O | Active | Active | 
CC1=CC(=O)c2ccccc2C1=O |  | Active | 
